Tested on: Experimental Autoimmune (or Allergic) Encephalomyelitis (“EAE”)
Test: In vivo evaluation: Experimental Autoimmune (or Allergic) Encephalomyelitis (EAE) model, motor impairment
Design: species or system rats or guinea pigs
Conditions: treatment from Day 8, bid for five days, SC, PO or IP

Compound: Cc1ccc(S(=O)(=O)N2CCC[C@@]2(C)C(=O)N[C@@H](Cc2ccc(OC(=O)N3CCN(C)CC3)cc2)C(=O)OC(C)(C)C)cc1 [Example 47, N-(toluene-4-sulfonyl)-α-methylprolyl-L-4-(4-methylpiperazin-1-carbonyloxy)phenylalanine tert-butyl ester]
- activity in EAE model (delayed the onset of symptoms, e.g., clinical scores no greater than 2 or slowed body weight loss as compared to the control): active
